Measurements published in paper PMC3117970 (ACS chemical biology, 2011).
Read-outs that look alike come from different tables or passages of the source.

What was measured:
human RAD51 = target: T1, human RAD51 (Homo sapiens, UniProt Q06609); experiment: D-loop assay for RAD51; format: biochemical; details: B02 derivatives 50 μM
T1 sequence (Q06609 2-339 limits assumed): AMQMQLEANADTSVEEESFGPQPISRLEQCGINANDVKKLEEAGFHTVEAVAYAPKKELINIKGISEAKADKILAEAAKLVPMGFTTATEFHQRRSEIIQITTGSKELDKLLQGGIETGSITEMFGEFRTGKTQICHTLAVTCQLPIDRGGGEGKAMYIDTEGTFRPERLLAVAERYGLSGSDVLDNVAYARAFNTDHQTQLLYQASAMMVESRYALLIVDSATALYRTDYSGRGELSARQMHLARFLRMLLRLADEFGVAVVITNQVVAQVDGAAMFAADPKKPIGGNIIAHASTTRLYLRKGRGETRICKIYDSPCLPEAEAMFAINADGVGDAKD

RecA = RecA (Escherichia coli, UniProt P0A7G6)
human RAD54 = target: T2, human RAD54 (Homo sapiens, UniProt Q92698); experiment: DNA branch migration assay for RAD54; format: biochemical; details: concentrations from 0 to 200 μM
T2 sequence (Q92698 1-747): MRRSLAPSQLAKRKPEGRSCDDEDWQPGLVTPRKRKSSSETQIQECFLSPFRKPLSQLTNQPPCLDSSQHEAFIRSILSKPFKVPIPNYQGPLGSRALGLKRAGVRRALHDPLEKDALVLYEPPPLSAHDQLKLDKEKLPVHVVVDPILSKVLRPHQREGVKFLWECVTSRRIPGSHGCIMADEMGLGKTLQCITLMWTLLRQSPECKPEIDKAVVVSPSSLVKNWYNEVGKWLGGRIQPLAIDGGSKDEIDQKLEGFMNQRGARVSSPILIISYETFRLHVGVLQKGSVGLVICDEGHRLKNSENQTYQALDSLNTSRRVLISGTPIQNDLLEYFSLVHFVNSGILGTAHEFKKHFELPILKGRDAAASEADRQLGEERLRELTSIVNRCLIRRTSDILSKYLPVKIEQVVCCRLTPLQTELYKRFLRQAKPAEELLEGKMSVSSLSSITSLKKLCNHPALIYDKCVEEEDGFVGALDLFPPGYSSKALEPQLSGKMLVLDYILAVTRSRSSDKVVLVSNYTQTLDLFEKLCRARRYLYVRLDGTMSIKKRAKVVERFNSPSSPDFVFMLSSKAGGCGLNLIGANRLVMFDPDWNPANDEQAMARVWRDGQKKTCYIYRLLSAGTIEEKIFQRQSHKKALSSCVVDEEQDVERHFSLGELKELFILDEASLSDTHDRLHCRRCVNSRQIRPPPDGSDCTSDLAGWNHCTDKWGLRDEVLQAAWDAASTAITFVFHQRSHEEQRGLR

Sequence of RecA (P0A7G6 2-353): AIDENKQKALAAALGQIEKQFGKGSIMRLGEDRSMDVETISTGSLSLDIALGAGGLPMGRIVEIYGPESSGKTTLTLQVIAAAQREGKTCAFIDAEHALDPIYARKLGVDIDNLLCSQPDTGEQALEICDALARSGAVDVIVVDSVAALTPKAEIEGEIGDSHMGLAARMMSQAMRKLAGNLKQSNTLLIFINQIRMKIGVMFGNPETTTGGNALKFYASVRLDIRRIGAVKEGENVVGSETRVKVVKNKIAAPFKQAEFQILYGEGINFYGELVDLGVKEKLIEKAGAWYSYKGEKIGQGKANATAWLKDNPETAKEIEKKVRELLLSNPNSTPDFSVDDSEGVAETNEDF

| SMILES | inhibitory effect on DNA strand exchange activity of RAD51 (D-loop assay) (human RAD51) | inhibition of RecA DNA strand exchange (RecA; concentrations up to 100 μM) | further results |
| --- | --- | --- | --- |
| Cc1cccc(-n2c(/C=C/c3cccnc3)nc3ccccc3c2=O)c1 [B02-3b] | retain the inhibitory effect | do not inhibit |  |
| O=c1c2ccccc2nc(C=Cc2cccnc2)n1-c1ccccc1 [B02-3d] | eliminates the inhibition |  |  |
| CCn1c(C=Cc2cccnc2)nc2ccccc2c1=O [B02-3a] | retain the inhibitory effect | do not inhibit |  |
| O=c1c2ccccc2nc(/C=C/c2cccnc2)n1Cc1ccccc1 [B02] |  |  | inhibition of RAD54 branch migration activity (human RAD54): did not significantly inhibit; IC50 (RecA; read-out: IC50 for RecA, D-loop assay, RecA 1 μM): > 250 µM; inhibition of RecA DNA strand exchange (RecA; up to 250 μM of compound): did not observe any significant inhibition |
| Cc1ccc(-n2c(C=Cc3cccnc3)nc3ccccc3c2=O)cc1 [B02-3c] | eliminates the inhibition |  |  |
| Cn1c(C=Cc2cccnc2)nc2ccccc2c1=O [B02-3e] | eliminates the inhibition |  |  |
